The source of these data is PMC3006138, “Fexinidazole – A New Oral Nitroimidazole Drug Candidate Entering Clinical Development for the Treatment of Sleeping Sickness” (PLoS Neglected Tropical Diseases, 2010).

The nature of the data set: in vitro. Particulars: human. The procedure: Caco-2 [36] or MDR1-MDCK (Madin Darby canine kidney cells transfected with the human multidrug resistance MDR1 gene) cell monolayers were grown to confluence on collagen-coated, microporous, polycarbonate membranes in 12-well microtitre plates. The buffer for the donor chamber was Hanks balanced salt solution with 10 mM HEPES and 15 mM glucose at pH 7.4. The buffer in the receiver chamber contained the same with the addition of 1% bovine serum albumin (BSA). The test article was added at 5 µM in the assay buffer. […] After 2 h, duplicate aliquots were taken from the donor and receiver chambers and assayed via LC/MS. The apparent permeability and recovery were calculated using standard methods.
The objective of this study was to determine the bi-directional Caco-2 permeability and efflux limited absorption poten tial of thr ee test compoun ds. […]
4 . […] Th e test compound dosing concentrations were 5 µM in th e a ssay bu f fer . […] After two hours, a l iquot s wer e t a ken fr om th e r ecei ver an d don or cha m ber s. E a ch det erm ina ti on wa s per for m ed in dupl i cat e. Th e Lucifer Yellow flux was also measur ed for each mon olayer after bein g subjected to th e test compoun ds to en sur e n o damage was in flicted to th e cell mon olayer s durin g th e flux per iod. All samples wer e assayed by LC/MS/MS usin g electrospray ionization. Analytical conditions are outlined in Attachment I. The apparent permeability, Papp, and per cen t r ecover y wer e calculated as follows:
Papp = (dCr /dt) x Vr/(AxC) (1)
P er cen t Rec o ver y = 1 0 0 x ( ( V r x C rfi n a l ) + (Vd x Cd fi n a l ))/(Vd x C N) (2) […]
dCr /dt is th e slope of th e cumulative con cen tration in th e r eceiver compartment ver sus time in µM s -1. […]

Regarding `CSc1ccc(OCc2ncc([N+](=O)[O-])n2C)cc1` [Fexinidazole, 1-methyl-2-((p-(methylthio)phenoxy)methyl)-5-nitroimidazole], under “Caco-2, pH 7.4”, the Papp A→B (in general, how fast a substance crosses the layer from the apical side) at 2 h, 5 µM was 57.2 ×10⁻⁶ cm/s; the Papp B→A (in general, how fast a substance crosses the layer from the basolateral side) at 2 h, 5 µM was found to be 50.9 ×10⁻⁶ cm/s; the efflux ratio (in general, a quotient of directional permeabilities that is used to spot active efflux) at 2 h, 5 µM was 0.9. This molecule displayed a recovery at 2 h, 5 µM (Caco-2, pH 7.4, Percent Recovery A→B) of 72%. The recovery at 2 h, 5 µM (Caco-2, pH 7.4, Percent Recovery B→A) is 81%.
